Test results as given in patent US20190083202A1, “APPARATUS AND METHODS USEFUL FOR REMODELING MAXILLOFACIAL BONE USING LIGHT THERAPY, AN ORTHODONTIC APPLIANCE, AND OPTIONALLY, VITAMIN D ADMINISTRATION” (priority 2017, published 2019).

Test: Paper example: vitamin D3 supplementation with daily light and fixed orthodontic appliance
Type: in vivo, human
Settings: passive phase; continued vitamin D3 2000 to 12,000 IU orally per day
Description: In one example, an adult patient's Vitamin D3 blood-serum level is measured during their routine orthodontic-examination and -records appointment. Laboratory results can indicate that the patient's vitamin D3 serum levels are at 20 ng/ml, which is considered to be deficient and abnormal. In this example, the patient's orthodontic diagnosis is Class I mild crowding with 4 mm of crowding on the upper arch and 4 mm on the lower arch. An orthodontic treatment plan can be formulated to comprise the installation of a fixed orthodontic appliance with some mild expansion of the upper and lower arches.
In this example, the patient self-administers oral oil-based vitamin D3 capsules at an amount of 6000 IU per day for 3 months to increase and normalize their vitamin D3 serum levels. Laboratory serum testing can optionally be performed again after 3 months of vitamin D3 supplementation. The patient can maintains or adjusts their oral dose of vitamin D3 based on their subsequent lab results. It should be understood that there are a number of alternative oral and/or systemic dosing protocols for vitamin D administration that could be followed to achieve similar results. The dosing protocol outlined above is merely one of many approaches.
In this example, orthodontic treatment can start either after the 3 month period or no more than about three months prior. […]

## C=C1CC[C@H](O)C/C1=C/C=C1\CCC[C@]2(C)[C@@H]([C@H](C)CCCC(C)C)CC[C@@H]12 [vitamin D3]
  alveolar bone density around the teeth: increased
